These results are taken from patent US10987354B2, “Inhibitors of influenza virus replication and uses thereof” (SUNSHINE LAKE PHARMA CO., LTD., priority 2016, dated 2021).

One data set has as its system virus H1N1 A/Weiss/43. The experiment in a line: microbe, parasite or virus in culture. Format: cell-based. The conditions noted are these: Influenza A virus, H1N1, 120 h; MDCK cells, CPE, 5 days, CCK-8; read-out: EC50, inhibitory activity against influenza virus (A/Weiss/43(H1N1)).
The next data set in a line: in vivo. To be noted: SD, rat.

Protocol for in vivo: The compounds disclosed herein were administered in form of a saline solution containing 5% DMSO, 5% Kolliphor HS 15 and 90% Saline. For intravenous administration (iv), the animals were administered with a dose of 1 mg/kg, and blood samples (0.3 mL) were collected at the time points of 0.083, 0.25, 0.5, 1.0, 2.0, 5.0, 7.0 and 24 h after drug administration, then each blood sample was processed to separate plasma by centrifugation at 3000 rpm or 4000 rpm for 10 minutes. For oral administration (po), the animals were administered with a dose of 5 mg/kg, and blood samples (0.3 mL) were collected at the time points of 0.25, 0.5, 1.0, 2.0, 5.0, 7.0 and 24 h after drug administration, then each blood sample was processed to separate plasma by centrifugation at 3000 rpm or 4000 rpm for 10 minutes. Plasma samples were collected and stored at −20° C. or −70° C. until LC/MS/MS analysis.

Turning to `O=C(O)C1C2CCC(CC2)C1Nc1cc(-c2ccco2)nc(-c2c[nH]c3ncc(Cl)nc23)n1` (racemic) [Example 1, (+/−)-trans-3-((2-(2-chloro-5H-pyrrolo[2,3-b]pyrazin-7-yl)-6-(furan-2-yl)pyrimidin-4-yl)amino)bicyclo[2.2.2]octane-2-carboxylic Acid], in the data set on virus H1N1 A/Weiss/43, the EC50 worked out at 3890 pM.

For the compound `O=C(O)C1C2CCC(CC2)C1Nc1nc(-c2c[nH]c3ncc(Cl)nc23)nc(-c2ccco2)c1F` (racemic) [Example 3, (+/−)-trans-3-((2-(2-chloro-5H-pyrrolo[2,3-b]pyrazin-7-yl)-5-fluoro-6-(furan-2-yl)pyrimidin-4-yl)amino)bicyclo[2.2.2]octane-2-carboxylic Acid], the EC50 in the data set on virus H1N1 A/Weiss/43 was found to be 672 pM.

`O=C(O)C1C2CCC(CC2)C1Nc1nc(-c2c[nH]c3ncc(Cl)nc23)nc(-c2ccccc2)c1F` (racemic) [Example 4, (+/−)-trans-3-((2-(2-chloro-5H-pyrrolo[2,3-b]pyrazin-7-yl)-5-fluoro-6-phenylpyrimidin-4-yl)amino)bicyclo[2.2.2]octane-2-carboxylic Acid]: the EC50 in the data set on virus H1N1 A/Weiss/43 was determined as 116 pM.

Turning to `Cn1cc(-c2nc(-c3c[nH]c4ncc(Cl)nc34)nc(NC3C4CCC(CC4)C3C(=O)O)c2F)cn1` (racemic) [Example 5, (+/−)-trans-3-((2-(2-chloro-5H-pyrrolo[2,3-b]pyrazin-7-yl)-5-fluoro-6-(1-methyl-1H-pyrazol-4-yl)pyrimidin-4-yl)amino)bicyclo[2.2.2]octane-2-carboxylic Acid], the EC50 in the data set with virus H1N1 A/Weiss/43 was 3520 pM.

With `O=C(O)C1C2CCC(CC2)C1Nc1nc(-c2c[nH]c3ncc(Cl)nc23)nc(-c2cc3ccccc3o2)c1F` (racemic) [Example 6, (+/−)-trans-3-((6-(benzofuran-2-yl)-2-(2-chloro-5H-pyrrolo[2,3-b]pyrazin-7-yl)-5-fluoropyrimidin-4-yl)amino)bicyclo[2.2.2]octane-2-carboxylic Acid], the EC50 with virus H1N1 A/Weiss/43 was determined as 398 pM.

`O=C(O)C1C2CCC(CC2)C1Nc1cc(-c2ccccc2)nc(-c2c[nH]c3ncc(Cl)nc23)n1` (racemic) [Example 12, (+/−)-trans-3-((2-(2-chloro-5H-pyrrolo[2,3-b]pyrazin-7-yl)-6-phenylpyrimidin-4-yl)amino)bicyclo[2.2.2]octane-2-carboxylic Acid]: in the data set on virus H1N1 A/Weiss/43, the EC50 worked out at 2540 pM.

The term AUC(0-inf) denotes the area under the concentration-time curve extrapolated to infinity. Lower therefore signals less exposure. As a reminder, the AUC(0-t) is the area under the concentration-time curve up to a stated or last time point. The term clearance denotes the rate of elimination divided by the concentration. A higher clearance goes with efficient removal. Turning to `O=C(O)[C@H]1C2CCC(CC2)[C@@H]1Nc1nc(-c2c[nH]c3ncc(Cl)nc23)ncc1F` [Compound A, reference compound], the EC50 in the data set on virus H1N1 A/Weiss/43 is 33200 pM. For the same compound, in the data set “in vivo” (iv, 1 mg/kg), the AUC(0-inf) turned out to be 894 ng·h/mL, the AUC(0-t) worked out at 894 ng·h/mL and the clearance is 312 mL/min/kg. In the data set “in vivo” (po, 5 mg/kg), this compound displayed an AUC(0-inf) of 2910 ng·h/mL and an AUC(0-t) of 2880 ng·h/mL.

For the compound `O=C(O)[C@H]1C2CCC(CC2)[C@@H]1Nc1nc(-c2c[nH]c3ncc(Cl)nc23)nc(-c2cc3ccccc3s2)c1F` [Example 7a, (2S,3S)-3-((6-(benzo[b]thiophen-2-yl)-2-(2-chloro-5H-pyrrolo[2,3-b]pyrazin-7-yl)-5-fluoropyrimidin-4-yl)amino)bicyclo[2.2.2]octane-2-carboxylic Acid], in “in vivo” (iv, 1 mg/kg), the AUC(0-inf) stood at 3260 ng·h/mL, the AUC(0-t) worked out at 3220 ng·h/mL and the clearance is 85.2 mL/min/kg. In “in vivo” (po, 5 mg/kg), this compound came in with an AUC(0-inf) of 9950 ng·h/mL and an AUC(0-t) of 9840 ng·h/mL.

For `CC(C)(C)[C@@H](CC(=O)O)Nc1nc(-c2c[nH]c3ncc(Cl)nc23)nc(-c2ccco2)c1F` [Example 8, (R)-3-((2-(2-chloro-5H-pyrrolo[2,3-b]pyrazin-7-yl)-5-fluoro-6-(furan-2-yl)pyrimidin-4-yl)amino)-4,4-dimethylpentanoic Acid], the EC50 in the data set with virus H1N1 A/Weiss/43 is 394 pM. Further, in “in vivo” (iv, 1 mg/kg), the AUC(0-inf) amounted to 1550 ng·h/mL, the area under the curve AUC(0-t) is 1540 ng·h/mL and the clearance is 187 mL/min/kg. In the data set “in vivo” (po, 5 mg/kg), this compound gave an AUC(0-inf) of 5440 ng·h/mL and an AUC(0-t) of 5420 ng·h/mL.

On to `O=C(O)[C@H]1C2CCC(CC2)[C@@H]1Nc1nc(-c2c[nH]c3ncc(Cl)nc23)nc(-c2cccs2)c1F` [Example 13, (2S,3S)-3-((2-(2-chloro-5H-pyrrolo[2,3-b]pyrazin-7-yl)-5-fluoro-6-(thiophen-2-yl)pyrimidin-4-yl)amino)bicyclo[2.2.2]octane-2-carboxylic Acid], for which the EC50 in the data set on virus H1N1 A/Weiss/43 stood at 17 pM. Further, in the data set “in vivo” (iv, 1 mg/kg), the AUC(0-inf) is 10100 ng·h/mL, the AUC(0-t) was 9900 ng·h/mL and the clearance is 27.8 mL/min/kg. Also, in the data set “in vivo” (po, 5 mg/kg), the AUC(0-inf) worked out at 29000 ng·h/mL and the AUC(0-t) turned out to be 27400 ng·h/mL.

As to `O=C(O)[C@H]1C2CCC(CC2)[C@@H]1Nc1cc(-c2cc3ccccc3s2)nc(-c2c[nH]c3ncc(Cl)nc23)n1` [Example 15, (2S,3S)-3-((6-(benzo[b]thiophen-2-yl)-2-(2-chloro-5H-pyrrolo[2,3-b]pyrazin-7-yl)pyrimidin-4-yl)amino)bicyclo[2.2.2]octane-2-carboxylic Acid], the EC50 with virus H1N1 A/Weiss/43 stood at 760 pM.

As to `O=C(O)[C@H]1C2CCC(CC2)[C@@H]1Nc1nc(-c2c[nH]c3ncc(Cl)nc23)nc(-c2ccc(C3CC3)s2)c1F` [Example 27, (2S,3S)-3-((2-(2-chloro-5H-pyrrolo[2,3-b]pyrazin-7-yl)-6-(5-cyclopropylthiophen-2-yl)-5-fluoropyrimidin-4-yl)amino)bicyclo[2.2.2]octane-2-carboxylic Acid], the EC50 in the data set with virus H1N1 A/Weiss/43 was found to be 24 pM. In the data set “in vivo” (iv, 1 mg/kg), the AUC(0-inf) was 1960 ng·h/mL, the AUC(0-t) was determined as 1960 ng·h/mL and the clearance is 144 mL/min/kg. In the data set “in vivo” (po, 5 mg/kg), the AUC(0-inf) worked out at 7250 ng·h/mL and the AUC(0-t) is 7170 ng·h/mL.

For `O=C(O)[C@H]1C2CCC(CC2)[C@@H]1Nc1nc(-c2c[nH]c3ncc(Cl)nc23)nc(-c2ccc(Cl)s2)c1F` [Example 29, (2S,3S)-3-((2-(2-chloro-5H-pyrrolo[2,3-b]pyrazin-7-yl)-6-(5-chlorothiophen-2-yl)-5-fluoropyrimidin-4-yl)amino)bicyclo[2.2.2]octane-2-carboxylic Acid], the EC50 in the data set with virus H1N1 A/Weiss/43 turned out to be 13 pM. In the data set “in vivo” (iv, 1 mg/kg), this compound had a total exposure AUC(0-inf) of 4980 ng·h/mL, an AUC(0-t) of 4830 ng·h/mL and a clearance of 56.3 mL/min/kg. Also, in the data set “in vivo” (po, 5 mg/kg), the AUC(0-inf) turned out to be 23800 ng·h/mL and the AUC(0-t) was 23700 ng·h/mL.

On to `Cc1ccc(-c2nc(-c3c[nH]c4ncc(Cl)nc34)nc(N[C@H]3C4CCC(CC4)[C@@H]3C(=O)O)c2F)s1` [Example 33, (2S,3S)-3-((2-(2-chloro-5H-pyrrolo[2,3-b]pyrazin-7-yl)-5-fluoro-6-(5-methylthiophen-2-yl)pyrimidin-4-yl)amino)bicyclo[2.2.2]octane-2-carboxylic Acid], for which the EC50 in the data set with virus H1N1 A/Weiss/43 worked out at 10 pM.

Turning to `O=C(O)[C@H]1C2CCC(CC2)[C@@H]1Nc1cc(N2CCN(c3ccccc3)CC2)nc(-c2c[nH]c3ncc(Cl)nc23)n1` [Example 39, (2S,3S)-3-((2-(2-chloro-5H-pyrrolo[2,3-b]pyrazin-7-yl)-6-(4-phenylpiperazin-1-yl)pyrimidin-4-yl)amino)bicyclo[2.2.2]octane-2-carboxylic Acid], the EC50 with virus H1N1 A/Weiss/43 is 1220 pM.

On to `O=C(O)[C@H]1C2CCC(CC2)[C@@H]1Nc1nc(-c2c[nH]c3ncc(Cl)nc23)nc(-c2nccs2)c1F` [Example 49, (2S,3S)-3-((2-(2-chloro-5H-pyrrolo[2,3-b]pyrazin-7-yl)-5-fluoro-6-(thiazol-2-yl)pyrimidin-4-yl)amino)bicyclo[2.2.2]octane-2-carboxylic Acid], for which, in the data set on virus H1N1 A/Weiss/43, the EC50 came to 521 pM. For the same compound, in the data set “in vivo” (iv, 1 mg/kg), the AUC(0-inf) is 3950 ng·h/mL, the AUC(0-t) was 3940 ng·h/mL and the clearance is 71.5 mL/min/kg. Moreover, in the data set “in vivo” (po, 5 mg/kg), the AUC(0-inf) was 3550 ng·h/mL and the AUC(0-t) turned out to be 3500 ng·h/mL.

In the data set “in vivo” (iv, 1 mg/kg), `O=C(O)[C@H]1C2CCC(CC2)[C@@H]1Nc1nc(-c2c[nH]c3nc(Cl)cnc23)nc(-c2cccs2)c1F` [Example 53, (2S,3S)-3-((2-(3-chloro-5H-pyrrolo[2,3-b]pyrazin-7-yl)-5-fluoro-6-(thiophen-2-yl)pyrimidin-4-yl)amino)bicyclo[2.2.2]octane-2-carboxylic Acid] gave an AUC(0-inf) of 3740 ng·h/mL, an AUC(0-t) of 3670 ng·h/mL and a clearance of 74.2 mL/min/kg. Besides, in “in vivo” (po, 5 mg/kg), the total exposure AUC(0-inf) worked out at 18000 ng·h/mL and the AUC(0-t) came out at 17700 ng·h/mL.

For the compound `O=C(O)[C@H]1C2CCC(CC2)[C@@H]1Nc1cc(-n2cccc2)nc(-c2c[nH]c3ncc(Cl)nc23)n1` [Example 55, (2S,3S)-3-((2-(2-chloro-5H-pyrrolo[2,3-b]pyrazin-7-yl)-6-(1H-pyrrol-1-yl)pyrimidin-4-yl)amino)bicyclo[2.2.2]octane-2-carboxylic Acid], the EC50 in the data set with virus H1N1 A/Weiss/43 amounted to 680 pM.

`N#Cc1ccc(-c2nc(-c3c[nH]c4ncc(Cl)nc34)nc(N[C@H]3C4CCC(CC4)[C@@H]3C(=O)O)c2F)s1` [Example 63, (2S,3S)-3-((2-(2-chloro-5H-pyrrolo[2,3-b]pyrazin-7-yl)-6-(5-cyanothiophen-2-yl)-5-fluoropyrimidin-4-yl)amino)bicyclo[2.2.2]octane-2-carboxylic acid]: the EC50 in the data set on virus H1N1 A/Weiss/43 worked out at 79 pM.

`O=C(O)[C@H]1C2CCC(CC2)[C@@H]1Nc1nc(-c2c[nH]c3nccnc23)nc(-c2cccs2)c1F` [Example 64, (2S,3S)-3-((5-fluoro-2-(5H-pyrrolo[2,3-b]pyrazin-7-yl)-6-(thiophen-2-yl)pyrimidin-4-yl)amino)bicyclo[2.2.2]octane-2-carboxylic Acid]: the EC50 with virus H1N1 A/Weiss/43 turned out to be 887 pM.

As to `O=C(O)[C@H]1C2CCC(CC2)[C@@H]1Nc1nc(-c2c[nH]c3ncc(Cl)nc23)nc2c1ccn2C(CF)CF` [Example 65, (2S,3S)-3-((2-(2-chloro-5H-pyrrolo[2,3-b]pyrazin-7-yl)-7-(1,3-difluoropropan-2-yl)-7H-pyrrolo[2,3-d]pyrimidin-4-yl)amino)bicyclo[2.2.2]octane-2-carboxylic Acid], in “in vivo” (iv, 1 mg/kg), the area under the curve AUC(0-inf) is 2390 ng·h/mL, the AUC(0-t) was 2370 ng·h/mL and the clearance is 121 mL/min/kg. In the data set “in vivo” (po, 5 mg/kg), this compound had an AUC(0-inf) of 6170 ng·h/mL and an AUC(0-t) of 6150 ng·h/mL.
